Values joined by “and” are separate entries in the source; they are usually repeats but may differ in a detail not shown here. Identical values can stand only once.
Columns and labels:
[1] = Molar enthalpy of transition or fusion; details: Crystal; DSC
[2] = molar heat capacity at constant pressure; details: 101.33 kPa

CC12CCC(CC1)C(C)(C)O2 [1,3,3-trimethyl-2-oxabicyclo[2.2.2]octane]
Details | Molar enthalpy of transition or fusion [kcal/mol]
[1] | 3.3

[2]
Details | molar heat capacity at constant pressure [J/K/mol]
273.4 K, Metastable liquid, Large sample (1 g) DSC | 257.8
278.5 K, Large sample (1 g) DSC, Liquid | 260.2
283.6 K, Large sample (1 g) DSC, Liquid | 262.3
288.7 K, Large sample (1 g) DSC, Liquid | 264.6
293.8 K, Large sample (1 g) DSC, Liquid | 267.3
298.9 K, Large sample (1 g) DSC, Liquid | 270.7
304 K, Large sample (1 g) DSC, Liquid | 273.3
309.1 K, Large sample (1 g) DSC, Liquid | 276.1
314.2 K, Large sample (1 g) DSC, Liquid | 279.3
319.4 K, Large sample (1 g) DSC, Liquid | 281.4
324.5 K, Large sample (1 g) DSC, Liquid | 284.6
329.6 K, Large sample (1 g) DSC, Liquid | 288
334.7 K, Large sample (1 g) DSC, Liquid | 290.9
339.8 K, Large sample (1 g) DSC, Liquid | 294.2
344.9 K, Large sample (1 g) DSC, Liquid | 297.3
350 K, Large sample (1 g) DSC, Liquid | 301.2
355.1 K, Large sample (1 g) DSC, Liquid | 304.6

Details | vapor or sublimation pressure
238.2 K, Crystal, Closed cell (Static) method | 0.00051 kPa and 0.000512 kPa
243.2 K, Crystal, Closed cell (Static) method | 0.001022 kPa and 0.001023 kPa
248.15 K, Crystal, Closed cell (Static) method | 0.00197 kPa and 0.001971 kPa and 0.001972 kPa
253.15 K, Crystal, Closed cell (Static) method | 0.003705 kPa and 0.003709 kPa and 0.003703 kPa
253.15 K, Metastable liquid, Closed cell (Static) method | 0.006217 kPa and 0.006221 kPa and 0.006222 kPa
258.15 K, Crystal, Closed cell (Static) method | 0.006771 kPa and 0.006776 kPa and 0.006782 kPa
258.15 K, Metastable liquid, Closed cell (Static) method | 0.01 kPa and 0.01001 kPa
263.15 K, Crystal, Closed cell (Static) method | 0.01211 kPa
263.15 K, Metastable liquid, Closed cell (Static) method | 0.01574 kPa and 0.01575 kPa and 0.01576 kPa
268.15 K, Crystal, Closed cell (Static) method | 0.02109 kPa and 0.0211 kPa
268.15 K, Metastable liquid, Closed cell (Static) method | 0.02431 kPa [middle of 4 runs]
273.15 K, Crystal, Closed cell (Static) method | 0.03596 kPa and 0.03597 kPa
273.65 K, Metastable liquid, Closed cell (Static) method | 0.03833 kPa and 0.03835 kPa and 0.03836 kPa
278.15 K, Closed cell (Static) method, Liquid | 0.05478 kPa and 0.0548 kPa
283.15 K, Closed cell (Static) method, Liquid | 0.0801 kPa and 0.08012 kPa
288.15 K, Closed cell (Static) method, Liquid | 0.1151 kPa and 0.1152 kPa
293.15 K, Closed cell (Static) method, Liquid | 0.1637 kPa
298.15 K, Closed cell (Static) method, Liquid | 0.2295 kPa and 0.2296 kPa
303.15 K, Closed cell (Static) method, Liquid | 0.3169 kPa and 0.317 kPa

Details | Normal melting temperature [°C]
Crystal, DTA | 1.0

CC1=CC[C@@H]2[C@H](C1)C2(C)C [(+)-3-carene]
Details | molar heat capacity at constant pressure [J/K/mol] | vapor or sublimation pressure
238.2 K, Liquid, Closed cell (Static) method | – | 0.00159 kPa and 0.001592 kPa and 0.001594 kPa
243.2 K, Liquid, Closed cell (Static) method | – | 0.002721 kPa and 0.002723 kPa
248.15 K, Liquid, Closed cell (Static) method | – | 0.004526 kPa and 0.004529 kPa
253.15 K, Liquid, Closed cell (Static) method | – | 0.007382 kPa and 0.007383 kPa and 0.007377 kPa
258.15 K, Liquid, Closed cell (Static) method | – | 0.01179 kPa and 0.0118 kPa
263.15 K, Liquid, Closed cell (Static) method | – | 0.01845 kPa and 0.01846 kPa
268.15 K, Liquid, Closed cell (Static) method | – | 0.02832 kPa and 0.02833 kPa
273.15 K, Liquid, Closed cell (Static) method | – | 0.04266 kPa and 0.04267 kPa
273.65 K, Liquid, Closed cell (Static) method | – | 0.0444 kPa and 0.04442 kPa and 0.04443 kPa
278.15 K, Liquid, Closed cell (Static) method | – | 0.06318 kPa and 0.06319 kPa
283.15 K, Liquid, Closed cell (Static) method | – | 0.09204 kPa and 0.09205 kPa
288.15 K, Liquid, Closed cell (Static) method | – | 0.1321 kPa
293.15 K, Liquid, Closed cell (Static) method | – | 0.1868 kPa
298.15 K, Liquid, Closed cell (Static) method | – | 0.2604 kPa and 0.2605 kPa
303.15 K, Liquid, Closed cell (Static) method | – | 0.3585 kPa
308.15 K, Liquid, Closed cell (Static) method | – | 0.4873 kPa
[2], 258.1 K, Liquid | 235.6 | –
[2], 263.2 K, Liquid | 237.8 | –
[2], 268.3 K, Liquid | 240.2 | –
[2], 273.4 K, Liquid | 242.4 | –
[2], 278.5 K, Liquid | 244.9 | –
[2], 283.6 K, Liquid | 247.2 | –
[2], 288.7 K, Liquid | 249.6 | –
[2], 293.8 K, Liquid | 251.9 | –
[2], 298.9 K, Liquid | 254.3 | –
[2], 304 K, Liquid | 256.6 | –
[2], 309.1 K, Liquid | 259 | –
[2], 314.2 K, Liquid | 261.4 | –
[2], 319.4 K, Liquid | 263.7 | –
[2], 324.5 K, Liquid | 266.3 | –
[2], 329.6 K, Liquid | 268.9 | –
[2], 334.7 K, Liquid | 271.5 | –
[2], 339.8 K, Liquid | 274 | –
[2], 344.9 K, Liquid | 276.6 | –
[2], 350 K, Liquid | 279.3 | –
[2], 355.1 K, Liquid | 281.8 | –

[2], Liquid, Large sample (1 g) DSC
Details | molar heat capacity at constant pressure [J/K/mol]
260.1 K | 236.9
265 K | 239.2
270 K | 241.6
275 K | 244.1
280 K | 246.3
285 K | 248.4
290 K | 250.6
295 K | 252.6
300 K | 254.8
305 K | 257.2
310 K | 259.6

Liquid
Details | vapor or sublimation pressure
273.15 K | 0.04241 kPa and 0.04243 kPa and 0.04244 kPa
278.15 K | 0.06282 kPa and 0.06283 kPa
283.15 K | 0.09152 kPa and 0.09153 kPa and 0.09154 kPa
288.15 K | 0.1313 kPa
293.15 K | 0.1855 kPa
298.15 K | 0.2584 kPa and 0.2585 kPa
303.15 K | 0.3553 kPa
308.15 K | 0.4825 kPa

C[C@H]1CC[C@H]2C[C@@H]1C2(C)C [(-)-trans-pinane]
[2], Liquid, Large sample (1 g) DSC
Details | molar heat capacity at constant pressure [J/K/mol]
258.1 K | 227.6
263.2 K | 230.3
268.3 K | 233.4
273.4 K | 236.3
278.5 K | 239.3
283.6 K | 242.3
288.7 K | 245.3
293.8 K | 248.3
298.9 K | 251.3
304 K | 254.3
309.1 K | 257.4

Liquid, Closed cell (Static) method
Details | vapor or sublimation pressure
238.15 K | 0.002871 kPa and 0.002872 kPa
243.15 K | 0.004792 kPa and 0.004794 kPa
248.15 K | 0.007832 kPa and 0.007836 kPa and 0.007837 kPa
253.15 K | 0.0125 kPa
258.15 K | 0.01954 kPa
263.15 K | 0.02999 kPa and 0.03 kPa
268.15 K | 0.04518 kPa and 0.0452 kPa
273.15 K | 0.06684 kPa and 0.06685 kPa and 0.06686 kPa
273.65 K | 0.06947 kPa
278.15 K | 0.09731 kPa and 0.09732 kPa
283.15 K | 0.1394 kPa
288.15 K | 0.1968 kPa
293.15 K | 0.2741 kPa
298.15 K | 0.3766 kPa and 0.3767 kPa
303.15 K | 0.5114 kPa
308.15 K | 0.6862 kPa and 0.6863 kPa

C=C(C)[C@H]1CC=C(C)CC1 [(R)-1-methyl-4-(1-methylethenyl)cyclohexene]
Liquid, Closed cell (Static) method
Details | vapor or sublimation pressure
238.2 K | 0.001012 kPa and 0.001013 kPa
243.2 K | 0.001755 kPa and 0.001756 kPa
248.15 K | 0.002958 kPa and 0.002959 kPa and 0.00296 kPa
253.15 K | 0.00489 kPa and 0.004891 kPa and 0.004889 kPa
258.15 K | 0.0079 kPa and 0.007901 kPa
263.15 K | 0.01251 kPa and 0.01252 kPa
268.15 K | 0.01942 kPa
273.15 K | 0.02957 kPa
273.65 K | 0.0308 kPa and 0.03082 kPa
278.15 K | 0.04422 kPa
283.15 K | 0.06502 kPa and 0.06504 kPa and 0.06505 kPa
288.15 K | 0.09414 kPa and 0.09416 kPa
293.15 K | 0.1343 kPa
298.15 K | 0.1888 kPa and 0.1889 kPa
303.15 K | 0.262 kPa
308.15 K | 0.3589 kPa

C=C(C)[C@@H]1CC=C(C)CC1 [(S)-1-methyl-4-(1-methylethenyl)cyclohexene]
[2], Liquid, Large sample (1 g) DSC
Details | molar heat capacity at constant pressure [J/K/mol]
260.1 K | 240.3
265 K | 242.5
270 K | 244.8
275 K | 247.1
280 K | 249.2
285 K | 251.3
290 K | 253.4
295 K | 255.8
300 K | 257.8
305 K | 260.2
310 K | 262.5

Liquid, Closed cell (Static) method
Details | vapor or sublimation pressure
273.65 K | 0.03073 kPa and 0.03074 kPa and 0.03075 kPa
278.15 K | 0.0441 kPa and 0.04411 kPa
283.15 K | 0.06487 kPa and 0.06488 kPa and 0.0649 kPa
288.15 K | 0.09392 kPa and 0.09395 kPa
293.15 K | 0.1339 kPa
298.15 K | 0.1883 kPa
303.15 K | 0.2609 kPa and 0.261 kPa
308.15 K | 0.3575 kPa and 0.3576 kPa

— the NIST ThermoML archive (doi:10.1016/j.jct.2014.04.022)
